Test results reported in paper PMC9468151, “Identification of a binding site on soluble RANKL that can be targeted to inhibit soluble RANK-RANKL interactions and treat osteoporosis” (Nature Communications, 2022).
Values joined by “and” are separate entries in the source; they are usually repeats but may differ in a detail not shown here. Equal values may be shown once.

How the values were obtained:
sRANKL = target: T1, sRANKL (Rattus norvegicus, UniProt Q9ESE2, D175N); assay: STD NMR binding assay with sRANKL; conditions: 100 μM protein, 5 mM compound
T1 construct: (1) sRANKL (rat 159-318 aa); His6-sumo (N, cleaved yes); made in house; host or cells: Escherichia coli BL21 (DE3)
T1 sequence (Q9ESE2 159-318 D175N): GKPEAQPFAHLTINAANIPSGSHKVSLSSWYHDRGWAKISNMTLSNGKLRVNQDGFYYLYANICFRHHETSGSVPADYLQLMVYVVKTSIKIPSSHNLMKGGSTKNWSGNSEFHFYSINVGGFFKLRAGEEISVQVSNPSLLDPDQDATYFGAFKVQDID
Method: For NMR studies, purified sRANKL or L-RANKL protein samples were buffer exchanged into PBS (Gbico, C10010500BT, pH7.4) using a Millipore spin column (1500 × g for 15 min at 4 °C, repeated six times, each time adding fresh PBS and discarding the flow-through). Protein concentration was determined using BCA method according to the procedure of Pierce^TM BCA Protein Assay Kit (Thermo Fisher Scientific). Compound S3-15 powder was dissolved in H2O as a concentration of 10 mM.
Protein saturation transfer difference (STD) experiments were performed on Bruker Avance III 500 (500 MHz) spectrometer (Columbia University) at 300 K using triple-resonance cryogenic probes optimized for proton detection. All experiments were performed using an independent sample for each experimental measurement as a 500 μL sample in NMR tubes with 100 μM protein and […] S3-15 in final concentration. Uniformly, for STD assay all samples were contained 50 μL protein, 200 μL S3-15 (10 mM in H2O), and 250 μL D2O; for S3-15 two-dimensional spectra reference, samples were 50 μL PBS, 200 μL S3-15 (10 mM in H2O) and 250 μL D2O.

[1] = target: T2, human mRANKL and human OPG (Homo sapiens, UniProt O14788); assay: mRANKL-OPG binding, HEK 293T cells with full length human RANKL; assay type: cell-based
T2 construct: HEK 293 T cells that transfer full length mouse RANKL or human RANKL; expressed in transfected cells; host or cells: HEK293T
Method: mRANKL-OPG: MC3T3-E1 cells were differentiated by osteoblast differentiation medium (Pythonbio, China) for 2 days. Then cells were exposed to 1 M NaCl for 5 minutes to remove endogenous OPG, washed once in PBS, and fixed with 70% ethanol for 5 minutes at 4 °C. Fixed cells were wash once by PBS and then exposed to PBS that containing 100 ng mouse OPG (Sino, China) or 100 ng mouse OPG with 1 μM S3-15 and incubated for an additional 30 min at 4 °C. Cell layers were washed 2 times with PBS and lysed with 1% triton in PBS. The concentration of OPG in cell lysates were measured with an OPG ELISA kit (USCN, China). Similar proceed were performed using HEK 293 T cells that transfer full length mouse RANKL or human RANKL.

[2] = tested on: osteoclast markers (DC-stamp, Ctsk, MMP9, Tracp, Oscar, Calcr); assay: RT-qPCR of osteoclast marker genes in BMMs; assay type: cell-based, mouse
Method: The mRNA expression level of S3-15 was measured by RT–qPCR as primary described. Total cellular RNA sample was prepared using RNAiso Plus, followed by reverse transcription with PrimeScript™ MixRT Master Mix reverse transcriptase kit. Then quantitative real-time PCR assays were performed with TB Green™ premix EX Taq™ II kit on an Applied Biosystems. […] signaling inhibiting effect was determined by western blotting. RAW264.7 cells were treated with 5 μM S3-15 with or without sRANKL (100 ng/mL) for 5, 10, 30 and 60 min after starved for 1 h. Then the cells were washed with cold PBS and lysed by RIPA Lysis Buffer. Cell lysates were then processed for Western Blotting analyses. Primary antibody binding was detected using rat secondary antibodies (1:5000) coupled with enhanced chemiluminescence (ECL) reagents (Thermo Scientific) and visualized on Tanon 5200. Primers used for qPCR and antibodies used for western blotting were seen supplementary materials for details.

mature osteoclasts = assay: Osteoclasts apoptotic activity assay; assay type: cell-based, mouse
Method: Mature osteoclasts were generated according to “Primary cultures of BMMs and osteoclastogenesis assay”. Mature osteoclasts were treated with or without compounds for 24 h[53]. At the end of incubation, cells were fixed with 4% paraformaldehyde and applied TRAP-staining. Apoptosis and cell death was measured by in situ fluorescence staining with AnnexinV-FITC (Beyotime Biotechnology) and prodidium iodide or DAPI staining flowing by their instructions. TRAP-positive cells, Annexin V, PI, and DAPI were visualized by Leica fluorescence microscopic.

OVX rats = assay: Rat body weight and organ coefficients determination; assay type: in vivo; conditions: for body weight (fig. S7d): in g (unit assumed)
Method: We dissected all rats after 12 weeks of treatment, then took the main organs like heart, liver, spleen, lung, kidney, and thymus. All the organs were removed the attached adipose and weighted with an electronic balance (Sartorius, Germany). Mice spleen and cervical lymph node were also taken and weighted. Organ index (mg/g) was calculated as the following formula: Organ coefficients=Organweight(mg)/Ratormousetotalweight(g)

[3] = BMMs, 100 ng/mL sRANKL + S3-15, relative to vehicle
[4] = versus Vehicle, three replicates

T2 sequence (O14788 whole entry): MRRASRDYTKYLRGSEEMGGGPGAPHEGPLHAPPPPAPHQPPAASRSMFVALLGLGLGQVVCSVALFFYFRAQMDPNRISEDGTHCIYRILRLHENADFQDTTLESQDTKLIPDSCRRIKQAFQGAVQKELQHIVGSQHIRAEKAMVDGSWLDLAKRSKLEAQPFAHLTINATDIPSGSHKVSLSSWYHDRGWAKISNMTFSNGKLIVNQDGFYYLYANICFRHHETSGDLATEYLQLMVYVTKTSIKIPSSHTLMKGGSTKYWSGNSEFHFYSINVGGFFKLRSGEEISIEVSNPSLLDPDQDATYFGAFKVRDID

## CC(=O)/C(=N\Nc1ccccc1C(=O)O)C(=O)Nc1ccccn1 [S3-15]
sRANKL
  STD-NMR binding to sRANKL: binds to sRANKL
[1]; 1 μM
  human mRANKL and human OPG binding: no effects
[1]; OPG+S3-15
  mRANKL-OPG binding signal (fig. S4p): 0.1995 and 0.1932 and 0.1954
[2]; BMMs without RANKL
  osteoclastogenesis related gene expression without RANKL: cannot affect
[2]; [3]
  Calcr mRNA expression: 452.218 and 472.155 and 436.053
  Ctsk mRNA expression: 96.8459 and 61.7386 and 86.8018
  DC-Stemp mRNA expression: 112.451 and 102.455 and 155.105
  MMP9 mRNA expression: 167.711 and 113.637 and 211.945
  Oscar mRNA expression: 160.036 and 111.839 and 197.432
  Tracp mRNA expression: 180.942 and 181.792 and 170.309
[2]; [4]
  Calcr relative expression (fig. S3i): 0.46 and 0.59 and 1.1
  Ctsk relative expression (fig. S3i): 1.05 and 0.94 and 2.17
  DC-Stamp relative expression (fig. S3i): 0.75 and 0.62 and 1.46
  MMP9 relative expression (fig. S3i): 1.19 and 1.06 and 1.03
  Oscar relative expression (fig. S3i): 0.54 and 0.76 and 2.12
  Tracp relative expression (fig. S3i): 0.53 and 0.95 and 1.32
Mature osteoclasts; Mus musculus, Osteoclast, 24 h treatment, read-out: EC50, apoptosis of mature osteoclasts
  EC50: 550 nM
Mature osteoclasts; mature osteoclasts, vehicle 41, 55, 67
  dead osteoclast quantification (fig. 6f): 227 and 290 and 265
OVX rats; individual animals
  organ coefficient, Heart: 2.652 and 2.903 and 2.602 and 2.757 and 2.485 and 2.813 and 2.658 and 2.708 and 2.583
  organ coefficient, Kidney: 4.969 and 4.261 and 5.124 and 5.036 and 4.8723 and 5.304 and 5.021 and 5.76 and 4.3689
  organ coefficient, Liver: 19.7988 and 22.7088 and 21.1699 and 21.9894 and 21.577 and 21.8338 and 22.6442 and 26.0414 and 24.0486
  organ coefficient, Lung: 3.321 and 3.475 and 4.3001 and 4.037 and 3.68 and 3.867 and 3.796 and 3.612 and 2.629
  organ coefficient, Spleen: 1.37 and 1.538 and 1.519 and 1.351 and 1.314 and 1.243 and 1.454 and 1.422 and 1.469
  organ coefficient, Thymus: 0.5247 and 0.4616 and 0.2402 and 1.041 and 0.7463 and 1.3304 and 0.3322 and 0.6497 and 0.411
  organ coefficient, Uterus: 0.5222 and 0.6316 and 3.058 and 1.43 and 0.2827 and 0.6792 and 0.9495 and 1.366 and 2.466
OVX rats; week 12, individual animals
  body weight (fig. S7d): 538.3 and 392.8 and 372.2 and 391.4 and 440.6 and 486.3 and 462.8 and 403.8 and 390.8
OVX rats; week 16, individual animals
  body weight (fig. S7d): 559.2 and 407.9 and 470.2 and 373.7 and 449.4 and 404.7 and 487.3 and 429.1 and 417.2
OVX rats; week 20, individual animals
  body weight (fig. S7d): 573.2 and 404.5 and 481.5 and 392.5 and 442.6 and 406.7 and 502.6 and 448.2 and 400
OVX rats; week 24, individual animals
  body weight (fig. S7d): 583.9 and 392.6 and 476.6 and 387.2 and 432.3 and 403.3 and 500.6 and 445.5 and 415.3
